Results: US9295673B2, “Combination of mTOR inhibitors and P13-kinase inhibitors, and uses thereof” (Intellikine LLC, priority 2011, dated 2016)

Experiments:
[1] = tested on: pAKT(S473), pAKT(T308) in PC3 cells; experiment: Western blot of Akt phosphorylation (pAKT) in PC3 cells; type: cell-based; conditions: PC3 cells, about 2 hours treatment, read-out: inhibition of pAKT, IC50
Procedure: (§1) Cells comprising one or more mutations in PI3Kα, including but not limited to breast cancer cells (e.g., MDA-MB-361, T47D, SKOV-3), and cells comprising one or more mutations in PTEN including but not limited to prostate cancer cells (e.g., PC3), are typically grown in cell growth media such as DMEM supplemented with fetal bovine serum and/or antibiotics, and grown to confluency. Cells are then treated with various concentrations of test compound for about 2 hours and subsequently lysed in cell lysis buffer. Lysates are subjected to SDS-PAGE followed by Western blot analysis to detect downstream signaling markers, including but not limited to pAKT(S473), pAKT(T308), pS6, and p4E-BP1.

human tumor cell lines = experiment: Tumor cell line proliferation assay; type: cell-based; conditions: chart (FIG. 13)
Procedure: The ability of one or more subject compounds to inhibit tumor cell line proliferation is determined according to standard procedures known in the art. For instance, an in vitro cellular proliferation assay can be performed to measure the metabolic activity of live cells. The assay is performed in a 96 well microtiter plate using Alamar Blue reduction. Human tumor cell lines are obtained from ATCC (e.g., MCF7, U-87 MG, MDA-MB-468, PC-3), grown to confluency in T75 flasks, trypsinized with 0.25% trypsin, washed one time with Tumor Cell Media (DMEM+10% FBS), and plated in 90 ul at 5,000 cells/well in Tumor Cell Media. A compound disclosed herein is diluted in Tumor Cell Media and added in a 10 ul volume. Plates are incubated for 72 hours at 37 C and 5% CO2. A volume of 10 uL of Alamar Blue reagent is added to each well and plates are incubated for 3 hours at 37 C and 5% CO2. Alamar Blue fluoresce is read at 560Ex/590Em, and IC50 values are calculated using GraphPad Prism 5.

PI3K α = PI3K α (Homo sapiens, UniProt P42336); experiment: PI 3-Kinase (human) HTRF assay, PI3K α; conditions: chart (FIG. 6C)
Procedure: An exemplary system is PI 3-Kinase (human) HTRF™ Assay from Upstate. […] Briefly, the assay is a time resolved FRET assay that indirectly measures PIP3 product formed by the activity of a PI3-K. The kinase reaction is performed in a microtitre plate (e.g., a 384 well microtitre plate). The total reaction volume is approximately 20 ul per well. In the first step, each well receives 2 ul of test compound in 20% dimethylsulphoxide resulting in a 2% DMSO final concentration. […] The plate is sealed and incubated for 15 minutes at room temperature. […] The plate is sealed and incubated for 1 hour at room temperature. The reaction is stopped by adding 5 ul of Stop Solution per well and then 5 ul of Detection Mix is added per well. The plate is sealed, incubated for 1 hour at room temperature, and then read on an appropriate plate reader. Data is analyzed and IC50s are generated using GraphPad Prism 5.

[2] = tested on: Akt, S6, 4EBP phosphorylation; experiment: Western blot of PI3K pathway phosphorylation (Akt, S6, 4EBP); type: cell-based
[3] = tested on: MDA-MB-361 (PI3Kα/HER2 carcinoma) tumors; experiment: In vivo efficacy in MDA-MB-361 xenograft mouse model of breast cancer; design: species or system nude mice; conditions: 70 mg/kg Pan-PI3K inhibitor, 60 mg/kg compound A, FIG. 9 left panel
Procedure: Blood glucose was monitored periodically following administration of treatment.
Treatment of tumors (MDA-MB-361) with compounds was discontinued on Day 30. Tumors were measured every 2-5 days.

breast cancer model = experiment: Preclinical breast cancer model (tumor weight / volume); type: in vivo; conditions: for tumor weight of a breast cancer model: 70 mg/kg Pan-PI3K inhibitor, 60 mg/kg compound A (FIG. 9 left)
MDA-MB-361 cells = experiment: Cell proliferation (CellTiter-Glo) in MDA-MB-361 cells; type: cell-based, human; conditions: read-out: inhibition of cell proliferation, IC50
Procedure: as §1
Cells were seeded at 5000-10,000 per well in a 96 well flat bottom plate 90 ul growth media. Pre-diluted compound (at 10 times the final concentration) or DMSO (control) was added. The compounds were prepared such that the dose range extended from a final concentration of 30 μM to 14 nM via 3-fold serial dilutions (8 point curve). The final DMSO concentration was 0.3%. […] After 72 hours, proliferation was measured using CellTiter-Glo Luminescent reagent (Promega, PR-G7573). […] Contents were mixed for 30 minutes on an orbital shaker to lyse cells Luminescence was read on a PerkinElmer EnVision plate reader. […] Inhibition % was calculated as: 1−(cells+inhibitor)−background signal)/(cells+DMSO)−background signal)[…].

[4] = tested on: 786-O human kidney carcinoma tumors; experiment: In vivo efficacy in 786-O xenograft model; design: species or system nude mice; conditions: oral, FIG. 6
B cell function = B cell function in vivo (TNP-Ficoll immunization, antibody production); design: species or system mouse; conditions: mice immunized with TNP-Ficoll; 70 mg/kg GDC0941; 30, 60 or 120 mg/kg Compound A for 7 days (FIG. 8)
Procedure: Antibody production was measured as a percentage of control group that were treated with vehicle.

[5] = tested on: pAKT(S473) in MDA-MB-361 cells; experiment: Western blot of Akt phosphorylation (pAKT) in MDA-MB-361 cells; type: cell-based, human; conditions: about 2 hours treatment, read-out: inhibition of pAKT, IC50
Procedure: as §1
MDA-MB-361(PIK3CA-E545K), MDA-MB-453 (PIK3CA-H1047R), and SK-Br3 (Her2) cells were treated with various concentrations of Compound A for 2 h and subsequently lysed. Lysates were subjected to SDS-PAGE followed by Western blot analysis as described above to detect downstream pathway markers.

MZB cells = MZB cells in mouse spleen; type: in vivo; conditions: 70 mg/kg Pan-PI3K inhibitor compared to 60 mg/kg Compound A (FIG. 9 right)
[6] = tested on: anti-TNP antibody production; experiment: TNP-Ficoll T-cell independent B-cell activation assay; type: in vivo; conditions: mice, 7 days; 70 mg/kg GDC0941; 30, 60, 120 mg/kg Compound A; ELISA; FIG. 8
Procedure: To test the effects of the compounds of the present invention in suppressing T cell independent antibody production, the TNP-Ficoll B-cell activation assay is used as described herein. Compounds of the present invention are dissolved in an appropriate vehicle (e.g. 5% 1-methyl-2-pyrrolidinone, 85% polyethylene glycol 400, 10% Solutor). Compounds are administered orally approximately 1 hr before TNP-Ficoll treatment to 4-10 week old mice. To study the effects of the compounds on B-cell activation, one set of mice are grouped according to the following table:
Four animals in group 1, and eight animals in groups 2 to 7 are euthanized in CO2 2 hours after the last compound administration on day 7. […]
Serum samples are analyzed for anti-TNP antibody titers by ELISA as described herein. […] HRP substrate (200 μl ABTS solution+30% H2O2+10 ml citrate buffer) is added to each well at 100 μl/well, incubated 2-20 minutes in the dark and the amount of anti-TNP IgG3 is determined spectrophotometrically at 405 nm. Similarly, anti-TNP IgM and total anti-TNP Ab are determined using anti-mouse IgM-HRP and anti-mouse Ig-HRP respectively.
Antibody production was measured using ELISA and plotted as as a percentage of control group that were treated with vehicle.

marginal zone B cells = experiment: Marginal zone B cells in mouse spleen (FACS); conditions: 70 mg/kg Pan-PI3K inhibitor, 60 mg/kg Compound A; spleens harvested 2 hrs after last dose; FIG. 9
Procedure: The effect of the compounds on the localization/viability of marginal zone B cells in the spleen is also evaluated at the conclusion of treatment.
Spleens were harvested 2 hrs after the last dose, processed and stained with appropriate antibodies (marginal zone B cell: B220+; CD23−; CD21hi) and analyzed for staining on GUAVA EasyCyte FACS machine using Guava Cytosoft 5.2 software.

Chain of PI3K α (P42336 whole entry): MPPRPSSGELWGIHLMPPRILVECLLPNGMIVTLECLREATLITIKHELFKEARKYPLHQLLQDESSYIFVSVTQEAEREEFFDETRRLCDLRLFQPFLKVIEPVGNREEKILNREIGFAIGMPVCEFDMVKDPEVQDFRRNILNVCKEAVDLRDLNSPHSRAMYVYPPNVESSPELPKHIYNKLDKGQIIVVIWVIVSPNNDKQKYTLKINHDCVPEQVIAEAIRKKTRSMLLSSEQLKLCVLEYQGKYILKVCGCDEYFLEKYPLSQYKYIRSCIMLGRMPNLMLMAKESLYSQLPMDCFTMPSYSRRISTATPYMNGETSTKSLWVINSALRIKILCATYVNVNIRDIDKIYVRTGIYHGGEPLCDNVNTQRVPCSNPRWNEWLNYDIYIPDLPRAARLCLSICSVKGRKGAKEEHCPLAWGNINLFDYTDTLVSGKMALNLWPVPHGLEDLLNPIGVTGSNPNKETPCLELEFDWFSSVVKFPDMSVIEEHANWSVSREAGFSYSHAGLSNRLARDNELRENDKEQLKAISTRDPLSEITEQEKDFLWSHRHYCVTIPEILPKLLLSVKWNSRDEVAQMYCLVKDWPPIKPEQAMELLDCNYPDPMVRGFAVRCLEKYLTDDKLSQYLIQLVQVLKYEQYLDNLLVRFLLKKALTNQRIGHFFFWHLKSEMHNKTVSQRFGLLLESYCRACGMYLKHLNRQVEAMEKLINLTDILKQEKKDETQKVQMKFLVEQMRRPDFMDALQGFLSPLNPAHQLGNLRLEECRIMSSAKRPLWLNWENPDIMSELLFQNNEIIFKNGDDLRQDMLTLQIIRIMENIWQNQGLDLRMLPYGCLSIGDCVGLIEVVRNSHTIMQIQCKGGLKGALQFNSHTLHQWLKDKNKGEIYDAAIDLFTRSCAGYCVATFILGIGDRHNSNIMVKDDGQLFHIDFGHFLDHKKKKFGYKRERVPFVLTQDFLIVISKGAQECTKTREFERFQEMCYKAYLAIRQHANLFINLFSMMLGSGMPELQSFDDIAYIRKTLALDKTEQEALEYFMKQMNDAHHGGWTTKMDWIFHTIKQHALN
Chain of PI3K α (P27986 whole entry partner): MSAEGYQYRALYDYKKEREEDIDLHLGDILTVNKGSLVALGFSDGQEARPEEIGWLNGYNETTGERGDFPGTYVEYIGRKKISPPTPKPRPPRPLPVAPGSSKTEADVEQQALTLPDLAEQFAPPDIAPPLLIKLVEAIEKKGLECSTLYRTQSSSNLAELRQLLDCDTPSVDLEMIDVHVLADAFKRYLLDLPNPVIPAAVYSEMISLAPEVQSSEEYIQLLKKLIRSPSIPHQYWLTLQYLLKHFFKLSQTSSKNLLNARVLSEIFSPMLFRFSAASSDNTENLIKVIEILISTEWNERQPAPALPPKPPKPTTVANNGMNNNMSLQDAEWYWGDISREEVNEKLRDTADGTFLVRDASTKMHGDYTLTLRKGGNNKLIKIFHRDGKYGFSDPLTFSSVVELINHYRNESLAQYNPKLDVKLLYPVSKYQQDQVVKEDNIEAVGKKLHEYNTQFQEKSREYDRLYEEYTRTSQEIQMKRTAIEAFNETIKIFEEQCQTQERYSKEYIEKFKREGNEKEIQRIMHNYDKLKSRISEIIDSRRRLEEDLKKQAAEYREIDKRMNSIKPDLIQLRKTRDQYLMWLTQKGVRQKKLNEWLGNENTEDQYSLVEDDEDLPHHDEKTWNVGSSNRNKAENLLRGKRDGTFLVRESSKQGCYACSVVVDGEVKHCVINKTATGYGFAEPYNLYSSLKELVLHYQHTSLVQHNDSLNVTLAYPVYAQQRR

Structure (SMILES) | IC50 [1] | proliferation of tumor cells harboring PI3K α mutations (human tumor cell lines) | specificity in inhibiting PI3K α over mTOR and other PI3K isoforms (PI3K α) | inhibition of the PI3K pathway in cell lines with elevated PI3K α activity ([2]; MDA-MB-361, MDA-MB-453, SKBr3 breast cancer cells, western blot (FIG. 11)) | inhibition of Akt, S6, and 4EBP phosphorylation ([2]; PTEN mutant cells, western blot (FIG. 6B)) | Akt phosphorylation at serine 473 ([2]; PTEN-mutant cell line (FIG. 12B)) | downregulating Akt and S6 phosphorylation ([2]; combined treatment with Compound A and Compound B, western blot (FIG. 3)) | Akt phosphorylation at serine 473 ([2]; western blot (FIG. 12A)) | tumor weight [3] | tumor weight of a breast cancer model (breast cancer model) | tumor weight in a preclinical breast cancer model (breast cancer model; combined treatment with Compound A and Compound B (FIG. 2)) | reducing tumor volume of a preclinical breast cancer model (breast cancer model; combined treatment with Compound A and rapamycin (FIG. 4)) | IC50 (MDA-MB-361 cells) | inhibition of kinase activity (downstream markers) and tumor growth [4] | B cell function in vivo (antibody production) (B cell function) | IC50 [5] | presence of MZB cells in mouse spleen (MZB cells) | B cell function in vivo (antibody production after TNP-Ficoll) [6] | presence (localization/viability) of marginal zone B cells in spleen (marginal zone B cells)
Nc1nc2cc(-c3ccc4ncc(C(=O)N5CCOCC5)n4c3)ccc2o1 [Compound A] | ~10000 nM | preferentially inhibits | specificity | inhibition | not | reduced inhibition | synergistic effect | inhibition | reduction in tumor weight | reduction in tumor weight | synergistic effect | synergistic effect | ~1900 nM | decreased activity by comparison to that seen in the MDA derived tumors | not | ~1000 nM |  |  | 
CS(=O)(=O)N1CCN(Cc2cc3nc(-c4cccc5[nH]ncc45)nc(N4CCOCC4)c3s2)CC1 [Pan-PI3K inhibitor, GDC0941, reference compound] |  |  |  |  |  |  |  |  | reduction in tumor weight | reduction in tumor weight |  |  |  |  | blocks |  | reduced presence | blocks B cell function in vivo | reduced presence of MZB cells
